Test results taken from ChEMBL document CHEMBL1782052, “Artemisinin-dipeptidyl vinyl sulfone hybrid molecules: design, synthesis and preliminary SAR for antiplasmodial activity and falcipain-2 inhibition” (Bioorg Med Chem Lett, 2009).

Columns and labels:
[1] = Inhibition of Plasmodium falciparum recombinant falcipain-2 incubated for 30 mins at room temperature before addition of substrate benzoxycarbonyl-Leu-Arg-7-amino-4-methyl-coumarin by spectrofluorometry
[2] = Inhibition of Plasmodium chabaudi recombinant chabaupain expressed in Escherichia coli
Plasmodium falciparum [3] = test: Antiplasmodial activity against chloroquine-resistant Plasmodium falciparum W2 synchronized ring stage parasites infected in erythrocytes assessed as reduction in parasitemia after 48 hrs by Giemsa staining; type: functional, organism-based; conditions: W2, 48 h
Plasmodium falciparum [4] = test: Antiplasmodial activity against atovaquone-resistant Plasmodium falciparum FCR3; type: functional, organism-based
Plasmodium falciparum [5] = test: Antiplasmodial activity against chloroquine-sensitive Plasmodium falciparum 3D7; type: functional, organism-based
Plasmodium falciparum [6] = test: Antiplasmodial activity against chloroquine and pyrimethamine-resistant Plasmodium falciparum V1/S; type: functional, organism-based
Plasmodium falciparum [7] = test: Antiplasmodial activity against chloroquine-sensitive and mefloquine-resistant Plasmodium falciparum D6; type: functional, organism-based
[8] = Inhibition of falcipain-2 in Plasmodium falciparum trophozoite extracts incubated for 30 mins at room temperature before addition of substrate benzyloxycarbonyl-Phe-Arg-7-amino-4-methyl-coumarin by spectrofluorometry
Plasmodium falciparum [9] = test: Antiplasmodial activity against Plasmodium falciparum Itg2 synchronized ring stage parasites infected in erythrocytes assessed as reduction in parasitemia after 48 hrs by Giemsa staining; type: functional, organism-based; conditions: Itg2, 48 h

Row | IC50 [8] | IC50 (Plasmodium falciparum [9]) | SMILES | IC50 [1] | IC50 [2] | IC50 (Plasmodium falciparum [3]) | IC50 (Plasmodium falciparum [4]) | IC50 (Plasmodium falciparum [5]) | IC50 (Plasmodium falciparum [6]) | IC50 (Plasmodium falciparum [7])
1 |  |  | CC(C)C[C@H](NC(=O)c1ccc(CO[C@H]2O[C@@H]3O[C@@]4(C)CC[C@H]5[C@H](C)CC[C@@H]([C@H]2C)[C@@]35OO4)cc1)C(=O)N[C@H](/C=C/S(=O)(=O)c1ccccc1)CCc1ccccc1 | 4950 nM | 2290 nM | 2.08 nM |  |  |  | 
2 |  |  | C[C@H]1[C@@H](OCc2ccc(C(=O)NCC(=O)N[C@H](/C=C/S(=O)(=O)c3ccccc3)Cc3ccccc3)cc2)O[C@@H]2O[C@@]3(C)CC[C@H]4[C@H](C)CC[C@@H]1[C@@]24OO3 | 16500 nM | 56800 nM | 4.09 nM | 1.75 nM | 3.11 nM | 1.59 nM | 4.71 nM
3 |  |  | C[C@H]1[C@@H](OCc2ccc(C(=O)N[C@@H](Cc3ccccc3)C(=O)N[C@H](/C=C/S(=O)(=O)c3ccccc3)Cc3ccccc3)cc2)O[C@@H]2O[C@@]3(C)CC[C@H]4[C@H](C)CC[C@@H]1[C@@]24OO3 | 22400 nM | 400 nM | 2.27 nM |  |  |  | 
4 |  |  | C[C@H]1[C@@H](OCc2ccc(C(=O)N[C@@H](Cc3ccccc3)C(=O)N[C@H](/C=C/S(=O)(=O)c3ccccc3)CCc3ccccc3)cc2)O[C@@H]2O[C@@]3(C)CC[C@H]4[C@H](C)CC[C@@H]1[C@@]24OO3 | 9220 nM | 538 nM | 3.94 nM |  |  |  | 
5 |  |  | C[C@H]1[C@@H](OCc2ccc(C(=O)N[C@@H](Cc3ccccc3)C(=O)N[C@H](/C=C/S(C)(=O)=O)CCc3ccccc3)cc2)O[C@@H]2O[C@@]3(C)CC[C@H]4[C@H](C)CC[C@@H]1[C@@]24OO3 | 21600 nM |  | 4.81 nM | 2 nM | 2.5 nM | 2.25 nM | 
6 |  |  | CC(C)C[C@H](NC(=O)c1ccc(CO[C@H]2O[C@@H]3O[C@@]4(C)CC[C@H]5[C@H](C)CC[C@@H]([C@H]2C)[C@@]35OO4)cc1)C(=O)N[C@H](/C=C/S(C)(=O)=O)CCc1ccccc1 | 350 nM |  | 4.21 nM | 1.89 nM | 2.48 nM | 1.65 nM | 4.96 nM
7 |  |  | CC(C)C[C@H](NC(=O)OC(C)(C)C)C(=O)N[C@H](/C=C/S(=O)(=O)c1ccccc1)CCc1ccccc1 | 210 nM |  | > 10000 nM |  |  |  | 
8 | 3 nM | 22 nM | CC(C)C[C@H](NC(=O)N1CCOCC1)C(=O)N[C@H](/C=C/S(=O)(=O)c1ccccc1)CCc1ccccc1 |  |  |  |  |  |  | 
9 |  |  | C[C@@H]1[C@H](OCc2ccc(C(=O)O)cc2)O[C@@H]2O[C@@]3(C)CC[C@@H]4[C@@H](C)CC[C@@H]1[C@]24OO3 (stereo in doubt) [ARTELINIC ACID] |  |  | 5.66 nM |  |  |  | 
10 |  |  | C[C@@H]1CC[C@H]2[C@@H](C)C(=O)O[C@@H]3O[C@@]4(C)CC[C@@H]1[C@]32OO4 [ARTEMISININ] |  |  | 12 nM | 5.38 nM | 9.71 nM | 4.24 nM | 
11 |  |  | CC(C)C[C@H](NC(=O)[C@H]1O[C@@H]1C(=O)O)C(=O)NCCCCN=C(N)N [E-64] | 84 nM | 9 nM |  |  |  |  | 
